# Marks after values point to notes of the source that are not given here. Where a SMILES comes first, the peptide text is derived from it. Where no end group is shown, it is not given here. [ ]: non-standard residue; d: D form. The star is where a group is joined. Tle = CC(C)(C)[C@H](N)C(=O)O; NMeA = CN[C@@H](C)C(=O)O; Aib = CC(C)(N)C(=O)O; OtBu = CC(C)(C)O*; tBu = CC(C)(C)*
# Tested on: peptide-forming enzyme (Mono S fraction enzyme)
# Experiment: Enzyme substrate specificity (1)-(10), (13), (14): peptide production
# Format: biochemical, Empedobacter brevis
# Parameters: key to Produced peptide (oligopeptide): +: those for which production was confirmed but which were unable to be quantified due to the absence of a standard; a trace amount; key to Formed peptide: +: those peptides for which production was confirmed but which were unable to be quantified due to the absence of a standard; a trace amount
# Settings: for L-Ala-L-Gln formed: 200 mM L-glutamine, 2 hours
# Description: Ester specificity was examined in the case of using L-amino acid ester for the carboxy component. 2 μl of the same enzyme fraction as used in Example 5 was added to 100 μl of 100 mM borate buffer (pH 9.0) containing the carboxy components indicated in Table 4 at 100 mM, 200 mM L-glutamine and 10 mM EDTA, and allowed to react at 25° C. for 2 hours. HCl represents hydrochloride in Table 4.
# Peptide production was examined in the case of using L-alanine methyl ester for the carboxy component and using various L-amino acids for the amine component.
# Peptide production was examined in the case of using various types of L-amino acid methyl esters for the carboxy component and using L-glutamine for the amine component. 2 μl of the same enzyme fraction as used in Example 5 was added to 100 μl of 100 mM borate buffer (pH 9.0) containing the L-amino acid methyl ester hydrochloride salts (AA-OMe.HCl) shown in Table 6 at 100 mM, 150 mM L-glutamine and 10 mM EDTA, and allowed to react at 25° C. for 3 hours. […] Furthermore, Tween-80 was added to the reaction system to a final concentration of 0.1% in the case of using L-Trp-OMe and L-Tyr-OMe.
# Peptide production was examined in the case of using various L-amino acid methyl esters for the carboxy component and various L-amino acids for the amine component. 2 μl of the same enzyme fraction as used in Example 5 was added to 100 μl of 100 mM borate buffer (pH 9.0) containing the L-amino acid methyl ester hydrochloride salts (AA-OMe.HCl) shown in Table 7 at 100 mM, the L-amino acids shown in Table 7 at 150 mM and 10 mM EDTA, and allowed to react at 25° C. for 3 hours. The “tr” indicates a trace amount. Furthermore, Tween-80 was added to the reaction system to a final concentration of 0.1% in the case of using L-Trp-OMe.
# Peptide production was examined in the case of using the L or D forms of various amino acid methyl esters for the carboxy component, and the L or D forms of various amino acids for the amine component. 2 μl of the same enzyme fraction as used in Example 5 was added to 100 μl of 100 mM borate buffer (pH 9.0) containing the various amino acid methyl ester hydrochloride salts (AA-OMe HCl) shown in Table 8 at 100 mM, the various amino acids shown in Table 8 at 150 mM and 10 mM EDTA, and allowed to react at 25° C. for 3 hours. The “tr” indicates a trace amount.
# Peptide production was examined using various L-amino acid amides for the carboxy component, and various L-amino acids for the amine component. 2 μl of the same enzyme fraction as that used in Example 5 was added to 100 μl of 100 mM borate buffer (pH 9.0) containing the L-amino acid amide hydrochloride salt (M-NH2.HCl) shown in Table 9 at 100 mM, the L-amino acids shown in Table 9 at 150 mM and 10 mM EDTA, and allowed to react at 25° C. for 3 hours.
# Peptide production was examined in the case of using various L-alanine methyl esters for the carboxy component and C-protected L-amino acids for the amine component. 2 μl of the same enzyme fraction as used in Example 5 was added to 100 μl of 100 mM borate buffer (pH 9.0) containing the L-alanine methyl ester hydrochloride hydrochloride salt (Ala-OMe.HCl) shown in Table 10 at 100 mM, the L-amino acid amide hydrochloride salts shown in Table 10 at 150 mM and 10 mM EDTA, and allowed to react at 25° C. for 3 hours.
# Peptide production was examined in the case of using various amino acid methyl esters for the carboxy component and methylamine for the amine component. 2 μl of the same enzyme fraction as used in Example 5 was added to 100 μl of 100 mM borate buffer (pH 9.0) containing the amino acid methyl ester hydrochloride salt (M-OMe.HCl) shown in Table 11 at 100 mM, the methylamine shown in Table 11 at 150 mM and 10 mM EDTA, and allowed to react at 25° C. for 3 hours.
# Peptide production was examined in the case of using […] for the carboxy component or β-amino acid for the amine component.
# [1] = L or D amino acid methyl ester hydrochloride 100 mM, L or D amino acid 150 mM, pH 9.0, 25° C., 3 hours
# [2] = L-amino acid methyl ester hydrochloride 100 mM, L-amino acid 150 mM, pH 9.0, 25° C., 3 hours
# [3] = carboxy component 100 mM, pH 9.0, 25° C.
# [4] = amount of enzyme 0.1 unit, pH 9.0, 25° C., 3 hours
# [5] = L-amino acid methyl ester hydrochloride 100 mM, 150 mM L-glutamine, pH 9.0, 25° C., 3 hours
# [6] = carboxy component 40 mM, amine component 40 mM, 0.1 unit enzyme, 25° C., reaction time 3 hr
# [7] = β-amino acid ester or β-amino acid, carboxy component 100 mM, amine component 150 mM, pH 9.0, 25° C., 3 hours
# [8] = L-amino acid ester 100 mM, peptide (amine component) 150 mM, pH 9.0, 25° C., 3 hours
# [9] = amount of enzyme 1.0 unit, pH 9.0, 25° C., 3 hours
# [10] = carboxy component 100 mM, amine component 150 mM, 0.1 unit enzyme, 25° C., reaction time 3 hr
# [11] = amount of enzyme 0.2 unit, pH 9.0, 25° C., 3 hours
# [12] = carboxy component 100 mM, amine component 150 mM, 0.1 unit enzyme, 25° C., reaction time 2 hr
compound,measurement,setting,value
N[C@H](CO)C(=O)N[C@H](CO)C(=O)O [D-Ser-D-Ser] (H-[dS]-[dS]-OH),Formed peptide,[1],2.5 mM
CSCC[C@H](NC(=O)[C@@H](N)Cc1cnc[nH]1)C(=O)O [L-His-L-Met] (H-His-Met-OH),Formed peptide,[2],6.5 mM
C[C@H](N)C(=O)OC(C)(C)C.Cl [L-Alanine-t-butyl ester.HCl],L-Ala-L-Gln formed,[3],7.5 mM
CSCC[C@@H](N)C(=O)N[C@H](CO)C(=O)O [D-Met-D-Ser] (H-[dM]-[dS]-OH),Formed peptide,[1],2.7 mM
[dA]-Gly-Phe,Produced peptide (oligopeptide),[4],Tr
NC(=O)CC[C@H](NC(=O)[C@@H](N)CCC(=O)O)C(=O)O [α-L-Glu-L-Gln] (H-Glu-Gln-OH),Formed peptide,[5],+
C[C@H](N)C(=O)N[C@@H](Cc1ccc([N+](=O)[O-])cc1)C(=O)O [H-Ala-p-NO2-Phe-OH],Produced peptide,[6],27.5 mM
NCCC(=O)NCCC(=O)O [β-Ala-β-Ala],Formed peptide,[7],0.2 mM
Gly-Gly-L-Tyr-L-Ala,Produced peptide,[8],44.2 mM
CC(C)[C@H](N)C(=O)N[C@H](CO)C(=O)O [L-Val-D-Ser] (H-Val-[dS]-OH),Formed peptide,[1],1.4 mM
N[C@H](CO)C(=O)N[C@@H](CO)C(=O)O [D-Ser-L-Ser] (H-[dS]-Ser-OH),Formed peptide,[1],3.3 mM
Gly-Phe-Met,Produced peptide (oligopeptide),[9],13.3 mM
CC(C)[C@@H](N)C(=O)N[C@H](CO)C(=O)O [D-Val-D-Ser] (H-[dV]-[dS]-OH),Formed peptide,[1],0.5 mM
NCC(=O)NCCC(=O)O [Gly-β-Ala],Formed peptide,[7],2.2 mM
C[C@H](N)C(=O)N[C@H](C(=O)O)C(C)(C)C [H-Ala-t-Leu-OH] (H-Ala-[Tle]-OH),Produced peptide,[10],0.4 mM
CC(C)[C@@H](N)C(=O)N[C@@H](CO)C(=O)O [D-Val-L-Ser] (H-[dV]-Ser-OH),Formed peptide,[1],0.6 mM
L-Ala-L-Phe-L-Met,Produced peptide (oligopeptide),[11],+
Gly-Gly-L-Gln,Produced peptide,[8],7.2 mM
L-Tyr-Gly-Gly-L-Phe-L-Met,Produced peptide (oligopeptide),[9],2.7 mM
CC(N)C(=O)NC(CC(=O)O)c1ccccc1 (stereo not drawn) [Ala-β-Phe],Formed peptide,[7],1.4 mM
NCC(=O)NC(CC(=O)O)c1ccccc1 (stereo not drawn) [Gly-β-Phe],Formed peptide,[7],0.4 mM
CN[C@@H](C)C(=O)N[C@@H](CCC(N)=O)C(=O)O [H-N-Me-Ala-H-Gln-OH] (H-[NMeA]-Gln-OH),Produced peptide,[10],0.5 mM
NCCC(=O)N[C@@H](CCC(N)=O)C(=O)O [β-Ala-L-Gln],Formed peptide,[7],0.6 mM
C[C@@H](O)[C@H](N)C(=O)NCCC(=O)O [Thr-β-Ala],Formed peptide,[7],3.2 mM
CC(N)C(=O)NCCC(=O)O (stereo not drawn) [Ala-β-Ala],Formed peptide,[7],7.7 mM
NCCCC[C@H](N)C(=O)N[C@@H](CCC(N)=O)C(=O)O [L-Lys-L-Gln] (H-Lys-Gln-OH),Formed peptide,[5],+
CC(C)(C)OC(=O)C[C@H](N)C(=O)N[C@@H](CCC(N)=O)C(=O)O [H-Asp(OtBu)-Gln-OH] (H-Asp(OtBu)-Gln-OH),Produced peptide,[12],0.9 mM
CSCC[C@@H](N)C(=O)N[C@@H](CO)C(=O)O [D-Met-L-Ser] (H-[dM]-Ser-OH),Formed peptide,[1],5.1 mM
C[C@H](N)C(=O)N[C@H](CCC(N)=O)C(=O)O [L-Ala-D-Gln] (H-Ala-[dQ]-OH),Formed peptide,[1],0.3 mM
L-Ala-Gly-Gly-L-Phe-L-Met,Produced peptide (oligopeptide),[11],+
C[C@H](N)C(=O)N[C@@H](COC(C)(C)C)C(=O)O [H-Ala-Ser(tBu)-OH] (H-Ala-Ser(tBu)-OH),Produced peptide,[12],48.8 mM
NC(=O)CC[C@H](NC(=O)[C@@H](N)Cc1cnc[nH]1)C(=O)O [L-His-L-Gln] (H-His-Gln-OH),Formed peptide,[5],+
C[C@@H](O)[C@H](N)C(=O)N[C@@H](CO)C(=O)O [L-Thr-L-Ser] (H-Thr-Ser-OH),Formed peptide,[2],58.2 mM
NCC(=O)N[C@@H](CS)C(=O)O [Gly-L-CySH] (H-Gly-Cys-OH),Formed peptide,[2],45.6 mM
C[C@H](N)C(=O)N[C@@H](CC(=O)OC(C)(C)C)C(=O)O [H-Ala-Asp(OtBu)-OH] (H-Ala-Asp(OtBu)-OH),Produced peptide,[12],62.6 mM
NC(=O)CCC(NC(=O)C(N)Cc1c[nH]c2ccccc12)C(=O)O [L-Trp-L-Gln] (H-Trp-Gln-OH; configuration not given here),Formed peptide,[5],+
CC(C)(N)C(=O)N[C@@H](Cc1ccccc1)C(=O)O [H-Aib-Phe-OH] (H-[Aib]-Phe-OH),Produced peptide,[10],17.2 mM
N[C@@H](Cc1ccccc1)C(=O)N[C@@H](CO)C(=O)O [L-Phe-L-Ser] (H-Phe-Ser-OH),Formed peptide,"L-amino acid amide hydrochloride as carboxy component 100 mM, L-amino acid 150 mM, pH 9.0, 25° C., 3 hours",0.6 mM
"COC(=O)[C@H](C)N.Cl [L-Alanine methyl ester.HCl, L-alanine methyl ester hydrochloride]",L-Ala-L-Gln formed,[3],84.3 mM
L-Ala-Gly-L-Phe,Produced peptide (oligopeptide),[4],+
CSCC[C@H](NC(=O)[C@@H](N)CCCCN)C(=O)O [L-Lys-L-Met],Formed peptide,[2],6.8 mM
NC(=O)CC[C@H](NC(=O)CC[C@H](N)C(=O)O)C(=O)O [γ-L-Glu-L-Gln],Formed peptide,[5],+
NCCC(=O)NC(CO)C(=O)O [β-Ala-L-Ser],Formed peptide,[7],3.2 mM
NC(=O)CC[C@H](NC(=O)C[C@H](N)C(=O)O)C(=O)O [β-L-Asp-L-Gln],Formed peptide,[5],tr
CSCC[C@H](NC(=O)[C@@H](N)CC(C)C)C(=O)O [L-Leu-L-] (H-Leu-Met-OH),Formed peptide,[2],12.2 mM
NC(=O)CC[C@H](NC(=O)[C@@H](N)CS)C(=O)O [L-CySH-L-Gln] (H-Cys-Gln-OH),Formed peptide,[5],+
NC(=O)CC[C@H](NC(=O)[C@@H](N)Cc1ccc([N+](=O)[O-])cc1)C(=O)O [H-p-NO2-Phe-H-Gln-OH],Produced peptide,[6],1.1 mM
NC(=O)CC[C@H](NC(=O)[C@@H](N)CC(N)=O)C(=O)O [L-Asn-L-Gln] (H-Asn-Gln-OH),Formed peptide,[5],+
L-Ala-L-Ala-L-Ala-L-Ala-L-Ala-L-Ala,Produced peptide,"carboxy component 10 mM, amine component 15 mM (low solubility), pH 9.0, 25° C., 3 hours",1.4* mM
